The text below walks through data of ChEMBL document CHEMBL1135958, “Hepatobiliary excretion of dipyrrinone sulfonates in Mrp2-deficient (TR(-)) rats” (Bioorg Med Chem Lett, 2002).

A short description of the data set: Pharmacokinetic parameter (Tmax) was estimated. Format: ADME, organism-based. The note with it: rat, in vivo.

On to `CCC1=C(C)C(=O)N/C1=C\c1[nH]c(C)c(CCS(=O)(=O)O)c1C`, for which the Tmax is 6 min.
